This is an account of results in patent publication US12215118B2, “Quinone methide analog signal amplification” (Ventana Medical Systems, Inc., priority 2014, dated 2025).

A short description of data set [1]: Accelerated stability study in Buffer A (50/50 DMSO and 10 mM glycine buffer pH 2.0). Type of data set: physicochemical. As to conditions: 20-25 °C. As for the experimental part:
With an understanding of the degradation pathways and characteristics, a solvent system was designed for the purpose of extending shelf-life of QMP compounds. […] At elevated temperature the degradation pathway described in FIG. 3C was still observed. However, at normal storage conditions (2-25° C.) the rate of decomposition of the QMP is reduced compared to 100% aqueous systems.

The test system of data set [2] is BCL6 on FFPE tonsil tissue. Description: AP-based CARD IHC with biotinylated QM precursor followed by DAB detection. The procedure:
Detection 1—HRP DAB. After incubating with the AP conjugate the slides were washed with Special Stains wash (VMSI #860-015). QMP reagents were dissolved in 100 mM CHES (3-cyclo-hexylamino-ethylsulfonic acid), pH 10.0, 0.05% Brij-35. QMP turnover was achieved by adding 100 μL of AP Enhancer (VMSI #253-2182) followed by 100 μL of hapten labeled QMP and incubating at 37° C. for 16 minutes. Compound 29 is an exemplary hapten-QMP that could be used according to this method. The deposited hapten was subsequently bound by a mouse-anti-hapten-HRP conjugate (or streptavidin-HRP) (37° C.; 8 minutes), and visualized via a brown precipitate produced by HRP upon the addition of hydrogen peroxide and DAB (37° C.; 8 minutes). The DAB was toned by the addition of copper sulfate (37° C.; 4 minutes). The stained tissue sections were counterstained with modified Mayer's hematoxylin (Hematoxylin II, VMSI #790-2208) (37° C.; 4 minutes) and then incubated with Bluing Reagent (VMSI #760-2037) (37° C.; 4 minutes). The slides were then dehydrated through a graded ethanol series, cleared with xylene, and manually cover-slipped.
Both compounds utilize fluoride as the leaving group, but the reactivity of the QM derived from difluoro compound 58 should be considerably lower than monofluoro 7 due to the electronic stabilization offered by the geminal fluorine atom. […] Therefore, the difluoro QM precursor compound 58 was evaluated first for IHC staining performance on FFPE tissue using the nuclear marker BCL6 on FFPE tonsil tissue as a model system. The biotin-labeled difluoro QM precursor successfully bound to the sample as evidenced by subsequent biotin visualization using diaminobenzidine (DAB) detection. FIG. 18 provides microphotographs illustrating the detection level at varying concentrations of the difluoro QM precursor in a Tris buffer at pH=8.5 (panel A—DAB control, panel B—1 μM, panel C—10 μM and panel D—20 μM). In addition, significant amplification of signal was observed compared to the DAB control sample when on-slide concentrations of difluoro QM precursor compound 58 greater than […] were utilized.
To test the effect of pH on signal diffusion, difluoro QM precursor compound 58 was deposited as before at various pH levels within the working range for AP (7-12 with two shoulders of maximal activity at pH=8.5 and 11). The nuclear marker BCL6 on FFPE tonsil tissue was again chosen as the model. Positive staining was observed across the entire pH range, although a balance between overall signal and diffusion was seen. FIG. 19, panels A-H provide microphotographs of the detection levels of 20 µM QM precursor in Tris buffer with varying pH: panel A—DAB control; panel B pH=7.0; panel C pH=8.0; panel D pH=8.5; panel E pH=9.0; panel F pH=10.0; panel G pH=11.0; panel H pH=12.0. The diffusion appears to decrease with increasing pH. […] The level of amplification increased only as the pH rose to 8.5 and then decreased gradually over the rest of the range. This effect may be due to a combination of enzyme activity and the population of QM quenchers in the reaction media. At pH levels well below the optimal AP reaction conditions (7.0), the activity of AP was depressed, resulting in low signal. As the pH increased (8.0-8.5) but remained near the pKa of Tris (8.1), the activity of AP increased at a faster rate than the population of quenchers in the reaction media, leading to a significant increase in signal. Raising the pH further (9-10) increased the quencher population while decreasing AP activity, resulting in a decrease of signal. Although AP had maximal activity at pH 11 in Tris, a slight decrease in staining intensity was observed, most likely due to the excessively high population of quenchers that could not be overcome by the increased AP activity (raising the pH from 8.5 to 11 increases [Tris base] about 50%, with AP activity increasing by only about 20%). […]

Data set [3] deals with Ki67 on FFPE tonsil tissue. Description: HRP DAB amplified by QMP-biotin with various leaving groups. The note with it: CHES pH 10.0, ultraView DAB control; for staining intensity and signal diffusion compared to the control slide: quaternary amine leaving groups, 100 μM; for signal resolution and intensity compared to the control slide: monofluoro 400 nM, acetate and methoxy 100 μM. The procedure: (b) Quinone methide analog precursor amplified DAB (FIGS. 21(B)-(D)). The tissue was deparaffinized and retrieved as described in the general procedures. Rabbit-anti-Ki-67 antibody incubation (37° C., 16 minutes) and washing were followed by secondary antibody incubation with a goat polyclonal anti-rabbit antibody conjugated to AP (37° C.; 12 minutes). After incubating with the AP conjugate the slides were washed with Special Stains wash. Pyridine QMP-biotin (100 μM) (FIG. 21(B)) or DABCO QMP-biotin (100 μM) (FIG. 21(C)) or triethylamine QMP-biotin (100 μM) (FIG. 21(D)) was dissolved in 100 mM CHES, pH 10.0, 0.05% Brij-35 to a final concentration of 100 nM. QMP turnover was achieved by adding 100 μL of AP Enhancer followed by 100 μL of biotin labeled QMP and incubating at 37° C. for 16 minutes. The deposited hapten was subsequently bound by streptavidin-HRP conjugate (37° C.; 8 minutes), and visualized via a brown precipitate produced by HRP upon the addition of hydrogen peroxide and DAB (37° C.; 8 minutes). The DAB was toned by the addition of copper sulfate (37° C.; 4 minutes). The stained tissue sections were counterstained with modified Mayer's hematoxylin (37° C.; 4 minutes) and then incubated with Bluing Reagent (37° C.; 4 minutes). They were then dehydrated through a graded ethanol series, cleared with xylene, and manually cover-slipped.
(b) QMP amplified DAB (FIGS. 22(B)-22(D)). The tissue was deparaffinized and retrieved as described in the general procedures. Rabbit-anti-Ki-67 antibody incubation (37° C., 16 minutes) and washing were followed by secondary antibody incubation with a goat polyclonal anti-rabbit antibody conjugated to AP (37° C.; 12 minutes). After incubating with the AP conjugate the slides were washed with Special Stains wash. Monofluoro QMP-biotin (400 nM) (FIG. 22(B)) or acetate QMP-biotin (100 μM) (FIG. 22(C)) or methoxy QMP-biotin (100 μM) (FIG. 22(D)) was dissolved in 100 mM CHES, pH 10.0, 0.05% Brij-35 to a final concentration of 100 nM. QMP turnover was achieved by adding 100 μL of AP Enhancer followed by 100 μL of biotin labeled QMP and incubating at 37° C. for 16 minutes. The deposited biotin was subsequently bound by a streptavidin-HRP conjugate (37° C.; 8 minutes), and visualized via a brown precipitate produced by HRP upon the addition of hydrogen peroxide and DAB (37° C.; 8 minutes). The DAB was toned by the addition of copper sulfate (37° C.; 4 minutes). The stained tissue sections were counterstained with modified Mayer's hematoxylin (37° C.; 4 minutes) and then incubated with Bluing Reagent (37° C.; 4 minutes). They were then dehydrated through a graded ethanol series, cleared with xylene, and manually cover-slipped.

On to `CN(C)c1ccc(N=Nc2ccc(S(=O)(=O)NCCOCCOCCOCCOCCOCCOCCOCCOCCC(=O)NCCCCCCNC(=O)C(F)c3ccccc3OP(=O)(O)O)cc2)cc1` (stereo not shown) [28(C)], for which the QMP remaining in data set [1] (0.0 days), in data set [1] (1.0 days), in data set [1] (4.0 days), in data set [1] (8.0 days), in data set [1] (10.0 days) and in data set [1] (14.0 days) was 100% throughout. Also, the results for the QMP remaining in data set [1] (17.0 days), in data set [1] (25.0 days) and in data set [1] (36.0 days) were 100%, 97.8% and 96.7%, respectively.

With `CN1/C(=C/C=C/C=C/C2=[N+](CCCCCC(=O)NCCCCCCNC(=O)C(F)c3ccccc3OP(=O)(O)O)c3ccccc3C2(C)C)C(C)(C)c2ccccc21.[Cl-]` (stereo not shown) [28(D)], the QMP remaining in data set [1] (0.0 days) is 99.9%; in data set [1] (1.0 days) it was 99.8%; in data set [1] (4.0 days), 95.4%; in data set [1] (8.0 days), 95.6%; in data set [1] (10.0 days), 95.7%; in data set [1] (14.0 days), 95.1%. The QMP remaining stood at 95.8% in data set [1] (17.0 days), 95.5% in data set [1] (25.0 days) and 94% in data set [1] (36.0 days).

In the case of `O=C(CCCCC1SCC2NC(=O)NC21)NCCCCCC(=O)Nc1ccc(OP(=O)(O)O)c(C(F)F)c1` (stereo not shown) [Compound 58], the “diffusion at the upper end of the pH range” value in data set [2] (Tris buffer, pH 7-12) is recorded as “still too great to be of clinical use for IHC”. For the same compound, the “on-slide concentration at which significant amplification of signal was observed compared to the DAB control” value in data set [2] (Tris buffer, pH=8.5) was “greater than 20 μM”. The “diffusion of signal, off-target staining” value in data set [2] (Tris buffer, pH=8.5, 1-20 μM, all cases) is “increased diffusion of signal”. For the same compound, the “concentration required to give the desired level of amplification” value in data set [2] (pH 8.5 in Tris buffer) came to 20 µM.

For the compound `O=C(CCCCC1SCC2NC(=O)NC21)NCCCCCC(=O)Nc1ccc(OP(=O)(O)O)c(C[N+]23CCN(CC2)CC3)c1` (stereo not shown) [DABCO QMP-biotin, 1-(5-(6-(5-(2-oxohexahydro-1H-thieno[3,4-d]imidazol-4-yl)pentanamido)hexanamido)-2-(phosphonooxy)benzyl)-1,4-diazabicyclo[2.2.2]octan-1-ium], the “staining intensity and signal diffusion compared to the control slide” value in data set [3] is “much lower staining intensity and greatly diffuse signals”.

As to `O=C(CCCCC1SCC2NC(=O)NC21)NCCCCCC(=O)Nc1ccc(OP(=O)(O)O)c(CF)c1` (stereo not shown) [Monofluoro QMP-biotin], in data set [3], the “signal resolution and intensity compared to the control slide” value is “well resolved signal with greater or equal intensity to the control slide”.

With `CC(=O)OCc1cc(NC(=O)CCCCCNC(=O)CCCCC2SCC3NC(=O)NC32)ccc1OP(=O)(O)O` (stereo not shown) [acetate QMP-biotin, 5-(6-(5-(2-oxohexahydro-1H-thieno[3,4-d]imidazol-4-yl)pentanamido)hexanamido)-2-(phosphonooxy)benzyl acetate], the “signal resolution and intensity compared to the control slide” value in data set [3] is “weak, very diffuse signal”.

For the compound `COCc1cc(NC(=O)CCCCCNC(=O)CCCCC2SCC3NC(=O)NC32)ccc1OP(=O)(O)O` (stereo not shown) [methoxy QMP-biotin, 2-(methoxymethyl)-4-(6-(5-(2-oxohexahydro-1H-thieno[3,4-d]imidazol-4-yl)pentanamido)hexanamido)phenyl dihydrogen phosphate], the “signal resolution and intensity compared to the control slide” value in data set [3] is “well resolved signal but with low intensity”.

Turning to `O=C(CCCCC1SCC2NC(=O)NC21)NCCCCCC(=O)Nc1ccc(OP(=O)(O)O)c(C[n+]2ccccc2)c1` (stereo not shown) [pyridine QMP-biotin, 1-(5-(6-(5-(2-oxohexahydro-1H-thieno[3,4-d]imidazol-4-yl)pentanamido)hexanamido)-2-(phosphonooxy)benzyl)pyridin-1-ium], in data set [3], the “staining intensity and signal diffusion compared to the control slide” value was “much lower staining intensity and greatly diffuse signals”.

Take `CC[N+](CC)(CC)Cc1cc(NC(=O)CCCCCNC(=O)CCCCC2SCC3NC(=O)NC32)ccc1OP(=O)(O)O` (stereo not shown) [triethylamine QMP-biotin, N,N-diethyl-N-(5-(6-(5-(2-oxohexahydro-1H-thieno[3,4-d]imidazol-4-yl)pentanamido)hexanamido)-2-(phosphonooxy)benzyl)ethanaminium]: in data set [3], the “staining intensity and signal diffusion compared to the control slide” value was “much lower staining intensity and greatly diffuse signals”.
